Patent publication US5426103A, “Certain macrocyclic lactam derivatives” (Ciba-Geigy Corporation, priority 1993, dated 1995)

Legend:
[1] = system: DOCA-salt hypertensive rats; assay: antihypertensive effect in DOCA-salt hypertensive rats; format: in vivo; details: DOCA-salt hypertensive rat, 30 mg/kg p.o. in 3% corn starch
Method: The antihypertensive effect can be determined in desoxycorticosterone acetate (DOCA)-salt hypertensive rats. DOCA-salt hypertensive rats (280-380 g) are prepared by the standard method. Rats underwent a unilateral nephrectomy and one week later are implanted with silastic pellets containing 100 mg/kg of DOCA. The rats are maintained on 1% NaCl/0.2% KCl drinking water for three to five weeks until sustained hypertension is established. The antihypertensive activity is evaluated at this time. Two days before an experiment, the rats are anesthetized with methoxyflurane and instrumented with catheters in the femoral artery to measure arterial blood pressure. Forty-eight hours later, baseline arterial pressure and heart rate are recorded during a 1 hour period. The test compound (30 mg/kg p.o.) or vehicle is then administered and the same cardiovascular parameters are monitored for an additional 5 hours.

[2] = system: ANF-induced natriuresis; assay: potentiation of the natriuretic effect of ANF in anesthetized rats; format: in vivo, rat (male Sprague-Dawley); details: rat, 30 mg/kg in polyethylene glycol 400, intraduodenally; ANF 1 μg/kg i.v. bolus
Method: The potentiation of the natriuretic effect of ANF can be determined as follows: Male Sprague-Dawley rats (280-360 g) are anesthetized with Inactin (100 mg/kg i.p.) and instrumented with catheters in the femoral artery, femoral vein and urinary bladder to measure arterial pressure, administer ANF and collect urine, respectively. A continuous infusion of normal saline (33 μl/min) is maintained throughout the experiment to promote diuresis and sodium excretion. The experimental protocol consists of an initial 15 minute collection period (designated as pre-control) followed by three additional collection periods. Immediately after completion of the pre-control period, test compound or vehicle is administered; nothing is done for the next 45 minutes. […] At the conclusion of this period, ANF is administered (1 μg/kg i.v. bolus) to all animals and arterial pressure and renal parameters are determined during two consecutive 15 minutes collection periods. Mean arterial pressure, urine flow and urinary sodium excretion are determined for all collection periods. Blood pressure is measured with a Gould p50 pressure transducer, urine flow is determined gravimetrically, sodium concentration is measured by flame photometry, and urinary sodium excretion is calculated as the product of urine flow and urine sodium concentration.

[3] = system: plasma ANF; assay: effect on rat plasma ANF concentration in ANF-infused conscious rats; format: in vivo, rat (male Sprague-Dawley); details: about 1-10 mg/kg p.o., ANF infusion 450 ng/kg/min i.v.
Method: The effect of the compounds of the invention on rat plasma ANF concentration can be determined as follows:
Male Sprague-Dawley rats (275-390 g) are anesthetized with ketamine (150 mg/kg)/acepromazine (10%) and instrumented with catheters in the femoral artery and vein to obtain blood samples and infuse ANF, respectively. The rats are tethered with a swivel system and are allowed to recover for 24 hours before being studied in the conscious, unrestrained state.
In this assay, plasma ANF levels are determined in the presence and absence of NEP inhibition. On the day of study, all rats are infused continuously with ANF at 450 ng/kg/min. i.v. for the entire 5 hours of the experiment. Sixty minutes after beginning the infusion, blood samples for baseline ANF measurements are obtained (time 0) and the rats are then randomly divided into groups treated with the test compound or vehicle. Additional blood samples are taken 30, 60, 120, 180 and 240 minutes after administration of the test compound.
Plasma concentrations are determined by a specific radioimmunoassay. […] The supermatant is decanted and the pellets counted in a gamma counter. […] Plasma ANF levels are expressed as a percent of those measured in vehicle-treated animals which received ANF alone (450 ng/kg/min i.v.).

## CC(=O)SC[C@H]1CCCCCC[C@H](C(=O)N2C[C@H](O)C[C@H]2C(=O)OCc2ccccc2)NC1=O [N-[[trans 3-(acetylthiomethyl)-2-oxo-1-azacyclodecan-10-yl]-carbonyl]-trans-4-hydroxy-L-proline benzyl ester]
[1]
  reduction in blood pressure: significant reduction in blood pressure
[2]
  potentiation of ANF-induced natriuresis: significant potentiation of ANF-induced natriuresis
[3]
  increase in plasma ANF levels: significant increases in plasma ANF levels
